Where “and” joins values, the source holds several entries; their conditions need not be identical. Equal entries are not always repeated.
Tested on: 935938-334-R-J1-PDC complex spheroid viability
Assay: Anticancer human tumor 935938-334-R-J1-PDC patient-derived small intestine adenocarcinoma cell line growth inhibition [POLQ]
Conditions: for viability, T/C: stronger effect = lower value
Method: Multicellular complex tumor spheroid response to Polymerase (POL) inhibitors (novobiocin, ART-558, RP6685) in combination with a variety of drugs and investigational agents in selected tumor cell lines
The POL inhibitors (novobiocin, ART-558, and RP6685) were evaluated both individually and in combination with standard of care and investigational anticancer small molecules within a complex spheroid model of solid tumors. . Complex spheroids include a stromal component modeled by human endothelial cells (HUVEC) and fibroblasts modeled by human mesenchymal stem cells (MSCs). The concentration ranges selected for each drug and investigational agent were based upon clinically achievable concentrations if the clinical Cmax of the agent was known.
Compounds. The drugs and investigational agents: novobiocin (NSC847541), ART-558 (NSC835418), RP-6685 (NSC848927), peposertib (NSC802822), ceralasertib (NSC780249), elimusertib (NSC800525), camonsertib (NSC841442), AZD-1390 (NSC803789), olaparib (NSC753686), talazoparib (NSC767125), rucaparib (NSC756644), sotorasib (NSC818433), MRTX-1133 (NSC836407), SN-38 (NSC673596), topotecan (NSC609699), epotoside (NSC141540), doxorubicin (NSC123127), gemcitabine (NSC613327), 5-fluorouracil (NSC19893), paclitaxel (NSC125973), vemurafenib (NSC761431), MSA-2 (NSC828583), SN-011 (NSC837082), adavosertib (NSC754352), prexasertib (NSC758257), carboplatin (NSC241240) and oxaliplatin (NSC266046), were obtained from the National Cancer Institute (NCI) Developmental Therapeutics Program Chemical Repository (21). The FDA-approved anticancer drug set is available from the Developmental Therapeutics Program at https://dtp.cancer.gov/organization/dscb/obtaining/. […] The stock solutions were prepared in dimethyl sulfoxide (DMSO, Sigma-Aldrich, St. Louis, MO, cat. D2650), except for the platinum compounds which were prepared in saline (Quality Biological, Gaithersburg, MD, cat. 114-055-101), at 800-fold the tested concentration and stored at -70 degrees C prior to their use. All drugs and investigational agents were tested over a range starting from a high concentration at or near the clinical Cmax and decreasing in half-log increments. If the clinical Cmax for an agent had not been determined, the highest concentration tested was 10 microM, except for SN-38, which was tested at a high concentration of 1 microM.
Cell Culture. All cells were maintained in an incubator at 37 degrees C and 5% CO2 with 95% humidity. The PDC lines were cultured according to standard operating procedures established by the NCI PDMR (https://pdmr.cancer.gov). Table 3 of the manuscript, lists the cell lines along with the number of the three cell types plated to form the mct-spheroids and media for tumor cell growth. After thawing, all PDC lines, except 997537-175-T-J1-PDC and 415267-285-R-J2-PDC, were cultured in Matrigel-coated flasks prepared with a working solution of 1X Ham's F-12 nutrient mix, without supplementation (Thermo Fisher Scientific, cat. 11765054), 100 U/mL penicillin-streptomycin (Thermo Fisher Scientific, cat. 15140122), and 2.5% Matrigel (Corning Inc., Corning, NY, cat. 354248) for the first three passages. The two PDC lines 997537-175-T-J1-PDC and 415267-285-R-J2-PDC were cultured on uncoated flasks. The 857933-349-R-J2-PDC line was cultured in 6C/Colon 1B media containing advanced DMEM/F-12 (Thermo Fisher Scientific, cat. 12634028), 10 mM HEPES (Thermo Fisher Scientific, cat. 15630080), 1X GlutaMAX supplement (Thermo Fisher Scientific, cat. 35050061), 0.1 mg/mL primocin (InvivoGen, San Diego, CA, cat. ant-pm-2), 10% defined fetal bovine serum, heat inactivated (HyClone Laboratories Inc., Logan, UT, cat. SH30070.03HI), 50% L-WRN conditioned media (ATCC, cat. CRL-3276), 1.25 mM N-Acetyl-L-cysteine (Sigma-Aldrich, cat. A9165), 10 mM nicotinamide (Sigma-Aldrich, cat. N0636), 1X B-27 supplement (Thermo Fisher Scientific, cat. 17504044), 1X N-2 supplement (Thermo Fisher Scientific, cat. […]
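Also: spheroids exposed to drugs for seven days before viability read.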
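For viability, T/C in this document: 100% = DMSO vehicle control wells.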

SMILES: C#Cc1c(F)ccc2cc(O)cc(-c3ncc4c(N5CC6CCC(C5)N6)nc(OCC56CCCN5CC(F)C6)nc4c3F)c12 (stereo unspecified) + COC1C(OC(N)=O)C(O)C(Oc2ccc3c(O)c(NC(=O)c4ccc(O)c(CC=C(C)C)c4)c(=O)oc3c2C)OC1(C)C
- IC50 (curve of first compound, second compound 0.0316 µM): 848 nM
- IC50 (curve of first compound, second compound 0.1 µM): 5680 nM
- IC50 (curve of first compound, second compound 0.316 µM): 1840 nM
- IC50 (curve of first compound, second compound 1 µM): 2620 nM
- IC50 (curve of first compound, second compound 3.16 µM): 6230 nM
- IC50 (curve of first compound, second compound 10 µM): 2920 nM
- viability, T/C (second compound 0.0316 µM, first compound 0.0316 µM): 84.6%
- viability, T/C (second compound 0.0316 µM, first compound 0.1 µM): 100%
- viability, T/C (second compound 0.0316 µM, first compound 0.316 µM): 70.6%
- viability, T/C (second compound 0.0316 µM, first compound 1 µM): 47.5%
- viability, T/C (second compound 0.0316 µM, first compound 3.16 µM): 47.1%
- viability, T/C (second compound 0.0316 µM, first compound 10 µM): 29.9%
- viability, T/C (second compound 0.1 µM, first compound 0.0316 µM): 76.3%
- viability, T/C (second compound 0.1 µM, first compound 0.1 µM): 93.5%
- viability, T/C (second compound 0.1 µM, first compound 0.316 µM): 111%
- viability, T/C (second compound 0.1 µM, first compound 1 µM): 73.1%
- viability, T/C (second compound 0.1 µM, first compound 3.16 µM): 61.5%
- viability, T/C (second compound 0.1 µM, first compound 10 µM): 41%
- viability, T/C (second compound 0.316 µM, first compound 0.0316 µM): 106%
- viability, T/C (second compound 0.316 µM, first compound 0.1 µM): 79.6%
- viability, T/C (second compound 0.316 µM, first compound 0.316 µM): 121%
- viability, T/C (second compound 0.316 µM, first compound 1 µM): 52%
- viability, T/C (second compound 0.316 µM, first compound 3.16 µM): 62.6%
- viability, T/C (second compound 0.316 µM, first compound 10 µM): 33.8%
- viability, T/C (second compound 1 µM, first compound 0.0316 µM): 92.8%
- viability, T/C (second compound 1 µM, first compound 0.1 µM): 81.2%
- viability, T/C (second compound 1 µM, first compound 0.316 µM): 75.8%
- viability, T/C (second compound 1 µM, first compound 1 µM): 65%
- viability, T/C (second compound 1 µM, first compound 3.16 µM): 42%
- viability, T/C (second compound 1 µM, first compound 10 µM): 44.1%
- viability, T/C (second compound 3.16 µM, first compound 0.0316 µM): 96.7%
- viability, T/C (second compound 3.16 µM, first compound 0.1 µM): 72%
- viability, T/C (second compound 3.16 µM, first compound 0.316 µM): 75.9%
- viability, T/C (second compound 3.16 µM, first compound 1 µM): 86.4%
- viability, T/C (second compound 3.16 µM, first compound 3.16 µM): 43.1%
- viability, T/C (second compound 3.16 µM, first compound 10 µM): 48.6%
- viability, T/C (second compound 10 µM, first compound 0.0316 µM): 65.6%
- viability, T/C (second compound 10 µM, first compound 0.1 µM): 97.9%
- viability, T/C (second compound 10 µM, first compound 0.316 µM): 77.4%
- viability, T/C (second compound 10 µM, first compound 1 µM): 57.2%
- viability, T/C (second compound 10 µM, first compound 3.16 µM): 54.8%
- viability, T/C (second compound 10 µM, first compound 10 µM): 43.9%

SMILES: O=C(c1cc(Cc2n[nH]c(=O)c3ccccc23)ccc1F)N1CCN(C(=O)C2CC2)CC1
- viability, T/C (compound 0.0316 µM): 88.4% and 80.5% and 75%
- viability, T/C (compound 0.1 µM): 103% and 70.2% and 77.2%
- viability, T/C (compound 0.316 µM): 100% and 67.5% and 112%
- viability, T/C (compound 1 µM): 94.9% and 67.4% and 68.7%
- viability, T/C (compound 3.16 µM): 72% and 64.6% and 73.7%
- viability, T/C (compound 10 µM): 54.9% and 55.4% and 55.1%
- IC50 (curve of compound): > 10000 nM

SMILES: CC1COCCN1c1cc(C2(S(C)(=N)=O)CC2)nc(-c2ccnc3[nH]ccc23)n1 (stereo unspecified)
- viability, T/C (compound 0.0316 µM): 98.1% and 87.1% and 102%
- viability, T/C (compound 0.1 µM): 112% and 108% and 84.7%
- viability, T/C (compound 0.316 µM): 80.3% and 107% and 90.2%
- viability, T/C (compound 1 µM): 85.9% and 79.2% and 65.2%
- viability, T/C (compound 3.16 µM): 46.4% and 41.8% and 49.7%
- viability, T/C (compound 10 µM): 24.2% and 18.7% and 17.1%
- IC50 (curve of compound): 3130 nM and 2420 nM and 2820 nM

From PubChem BioAssay AID1963829 (Molecular Pharmacology Branch, DTP, NCI, 2024)
